Data from patent publication US11739100B2, “2,3-dihydro-1h-imidazo{1,2-a}pyrimidin-5-one and this 1,2,3,4-tetrahydropyrimido{1,2-a}pyrimidin-6-one derivatives comprising a substituted morpholine, preparation thereof and pharmaceutical use thereof” (SANOFI, priority 2012, dated 2023).

Target: T1, recombinant Vps34 (Homo sapiens, UniProt Q8NEB9)
T1 construct: purchased Invitrogen PV5126
Experiment: Phosphorylation of phosphatidylinositol (PI) by Vps34 in vitro, ADP detected by TR-FRET (HTRF Transcreener ADP)
Assay type: biochemical
Settings: 10 μM ATP, 55 μg/ml PI, approximately 3 nM Vps34, 1 hour at ambient temperature; absolute IC50, mean of two independent experiments; read-out: IC50 activity range

T1 sequence (Q8NEB9 whole entry): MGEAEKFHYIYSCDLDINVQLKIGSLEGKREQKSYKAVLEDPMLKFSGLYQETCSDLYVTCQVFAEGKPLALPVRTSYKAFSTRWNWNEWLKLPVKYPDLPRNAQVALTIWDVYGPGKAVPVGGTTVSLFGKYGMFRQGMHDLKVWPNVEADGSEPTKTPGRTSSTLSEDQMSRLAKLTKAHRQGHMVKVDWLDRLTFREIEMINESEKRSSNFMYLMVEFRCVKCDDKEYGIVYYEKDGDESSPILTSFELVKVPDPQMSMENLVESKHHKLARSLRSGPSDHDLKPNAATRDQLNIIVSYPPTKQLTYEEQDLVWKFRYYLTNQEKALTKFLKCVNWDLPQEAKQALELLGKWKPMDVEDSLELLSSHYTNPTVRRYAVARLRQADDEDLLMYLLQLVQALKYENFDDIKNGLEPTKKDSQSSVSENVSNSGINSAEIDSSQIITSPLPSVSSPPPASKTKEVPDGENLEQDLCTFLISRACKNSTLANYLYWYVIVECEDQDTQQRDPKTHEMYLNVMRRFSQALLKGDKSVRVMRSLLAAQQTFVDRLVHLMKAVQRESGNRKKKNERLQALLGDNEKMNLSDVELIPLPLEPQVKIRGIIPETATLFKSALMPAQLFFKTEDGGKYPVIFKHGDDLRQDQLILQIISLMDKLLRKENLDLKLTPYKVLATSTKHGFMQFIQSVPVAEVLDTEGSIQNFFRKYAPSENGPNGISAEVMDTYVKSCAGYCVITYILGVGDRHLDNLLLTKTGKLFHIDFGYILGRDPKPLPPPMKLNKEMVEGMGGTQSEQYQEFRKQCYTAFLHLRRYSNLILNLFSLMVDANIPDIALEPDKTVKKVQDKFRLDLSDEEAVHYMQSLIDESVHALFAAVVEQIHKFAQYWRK

Work on `O=C(CN1c2nc(N3CC4CCC(C3)O4)cc(=O)n2CC[C@H]1C(F)(F)F)C1CC1` [Example 271, (S)-9-(2-Cyclopropyl-2-oxoethyl)-2-(8-oxa-3-azabicyclo[3.2.1]oct-3-yl)-8-trifluoromethyl-6,7,8,9-tetrahydro-pyrimido[1,2-a]-pyrimidin-4-one] yielded an IC50 of 10 to 100 nM.
With `C[C@@H]1COCCN1c1cc(C(=O)CN2c3nc(N4CCOC[C@H]4C)cc(=O)n3CC[C@H]2C(F)(F)F)ccn1` [Example 303, (S)-2-((R)-3-Methyl-morpholin-4-yl)-9-{2-[2-((R)-3-methyl-morpholin-4-yl)pyridin-4-yl]-2-oxoethyl}-8-trifluoromethyl-6,7,8,9-tetrahydropyrimido[1,2-a]pyrimidin-4-one] the IC50 was < 10 nM.
In the case of `C[C@@H]1COCCN1c1nc2n(c(=O)c1F)[C@@H](C(F)(F)F)CCN2CC(=O)c1cccnc1` [Example 126, (R)-3-Fluoro-2-((R)-3-methylmorpholin-4-yl)-9-(2-oxo-2-pyridin-3-ylethyl)-6-trifluoromethyl-6,7,8,9-tetrahydro-pyrimido[1,2-a]-pyrimidin-4-one], the IC50 is reported as < 10 nM.
`C[C@@H]1COCCN1c1nc2n(c(=O)c1F)CCC(C)(C)N2Cc1ccnn1C(F)F` [Example 74, 9-(2-Difluoromethyl-2H-pyrazol-3-yl-methyl)-3-fluoro-8,8-dimethyl-2-((R)-3-methylmorpholin-4-yl)-6,7,8,9-tetrahydro-pyrimido[1,2-a]-pyrimidin-4-one] showed an IC50 of 10 to 100 nM.
With `C[C@@H]1COCCN1c1cc(=O)n2c(n1)N(CC(=O)c1ccnc(F)c1)[C@H](C(F)(F)F)CC2` [Example 25, (S)-9-[2-(2-Fluoro-pyridin-4-yl)-2-oxo-ethyl]-2-((R)-3-methyl-morpholin-4-yl)-8-trifluoromethyl-6,7,8,9-tetrahydro-pyrimido[1,2-a]-pyrimidin-4-one] the IC50 was < 10 nM.
`C[C@@H]1COCCN1c1nc2n(c(=O)c1F)[C@@H](C(F)(F)F)CCN2CC(=O)C1CCOCC1` [Example 132, (R)-3-Fluoro-2-((R)-3-methylmorpholin-4-yl)-9-[2-oxo-2-(tetrahydro-pyran-4-yl)ethyl]-6-trifluoromethyl-6,7,8,9-tetrahydro-pyrimido[1,2-a]-pyrimidin-4-one] was tested, and the IC50 was < 10 nM.
`C[C@@H]1COCCN1c1cc(=O)n2c(n1)N(CC(=O)C1(C)CCOCC1)[C@H](C(F)(F)F)CC2` [Example 310, (S)-2-((R)-3-Methyl-morpholin-4-yl)-9-[2-(4-methyl-tetrahydro-pyran-4-yl)-2-oxo-ethyl]-8-trifluoromethyl-6,7,8,9-tetrahydro-pyrimido[1,2-a]-pyrimidin-4-one] was tested, and the IC50 was < 10 nM.
With `CCC(=O)CN1c2nc(N3CCOC[C@H]3C)cc(=O)n2CC[C@H]1C(F)(F)F` [Example 16, (S)-2-((R)-3-Methyl-morpholin-4-yl)-9-(2-oxobutyl)-8-trifluoromethyl-6,7,8,9-tetrahydro-pyrimido[1,2-a]-pyrimidin-4-one] the IC50 was < 10 nM.
With `CCC(=O)CN1CC[C@H](C(F)(F)F)n2c1nc(N1CCOC[C@H]1C)c(F)c2=O` [Example 29, (R)-3-Fluoro-2-((R)-3-methylmorpholin-4-yl)-9-(2-oxobutyl)-6-trifluoromethyl-6,7,8,9-tetrahydro-pyrimido[1,2-a]-pyrimidin-4-one] the IC50 was < 10 nM.
For `CC(C)c1nc(CN2c3nc(N4CCOC[C@H]4C)cc(=O)n3CC[C@H]2C(F)(F)F)no1` [Example 201, (S)-9-(5-Isopropyl-[1,2,4]oxadiazol-3-yl-methyl)-2-((R)-3-methylmorpholin-4-yl)-8-trifluoromethyl-6,7,8,9-tetrahydro-pyrimido[1,2-a]-pyrimidin-4-one], the IC50 was < 10 nM.
In the case of `Cc1ccc(N2c3nc(N4CCOC[C@H]4C)cc(=O)n3CC[C@H]2C(F)(F)F)cn1` [Example 83, (S)-2-((R)-3-Methyl-morpholin-4-yl)-9-(6-methylpyridin-3-yl)-8-trifluoromethyl-6,7,8,9-tetrahydro-pyrimido[1,2-a]-pyrimidin-4-one], the IC50 is reported as < 10 nM.
For `C[C@@H]1COCCN1c1nc2n(c(=O)c1F)[C@@H](C(F)(F)F)CCN2Cc1nc(C(F)(F)F)no1` [Example 28, (R)-3-Fluoro-2-((R)-3-methylmorpholin-4-yl)-6-trifluoromethyl-9-(3-trifluoromethyl-[1,2,4]oxadiazol-5-yl-methyl)-6,7,8,9-tetrahydro-pyrimido[1,2-a]-pyrimidin-4-one], the IC50 was < 10 nM.
`C[C@@H]1COCCN1c1nc2n(c(=O)c1F)CC[C@@H](C(F)(F)F)N2Cc1ccc(F)cn1` [Example 56, (S)-3-Fluoro-9-(5-fluoropyridin-2-yl-methyl)-2-((R)-3-methylmorpholin-4-yl)-8-trifluoromethyl-6,7,8,9-tetrahydro-pyrimido[1,2-a]-pyrimidin-4-one] was tested, and the IC50 was < 10 nM.
For `Cc1cc(CN2c3nc(N4[C@H](C)COC[C@H]4C)cc(=O)n3CC[C@H]2C(F)(F)F)on1` [Example 155, (S)-2-((3R,5R)-3,5-Dimethylmorpholin-4-yl)-9-(3-methyl-isoxazol-5-ylmethyl)-8-trifluoromethyl-6,7,8,9-tetrahydro-pyrimido[1,2-a]-pyrimidin-4-one], the IC50 was < 10 nM.
With `C[C@@H]1COCCN1c1cc(=O)n2c(n1)N(CC(O)c1ccccn1)[C@H](C(F)(F)F)CC2` (single isomer, unassigned) [Example 212] the IC50 was < 10 nM.
For `C[C@@H]1COCCN1c1nc2n(c(=O)c1F)CC[C@@H](C(F)(F)F)N2CC(=O)c1ccccn1` [Example 38, (S)-3-Fluoro-2-((R)-3-methylmorpholin-4-yl)-9-(2-oxo-2-pyridin-2-ylethyl)-8-trifluoromethyl-6,7,8,9-tetrahydro-pyrimido[1,2-a]-pyrimidin-4-one], the IC50 was < 10 nM.
In the case of `C[C@@H]1COCCN1c1cc(=O)n2c(n1)N(c1ccc(C(F)F)nc1)C(C(F)(F)F)CC2` (stereo partly drawn) [Example 134, 9-(6-Difluoromethyl-pyridin-3-yl)-2-((R)-3-methylmorpholin-4-yl)-8-trifluoromethyl-6,7,8,9-tetrahydro-pyrimido[1,2-a]-pyrimidin-4-one], the IC50 is reported as < 10 nM.
In the case of `C[C@@H]1COCCN1c1cc(=O)n2c(n1)N(CC(O)c1ccccn1)[C@H](C(F)(F)F)CC2` (stereo partly drawn) [Example 213, (S)-9-(2-Hydroxy-2-pyridin-2-ylethyl)-2-((R)-3-methyl-morpholin-4-yl)-8-trifluoromethyl-6,7,8,9-tetrahydro-pyrimido[1,2-a]-pyrimidin-4-one], the IC50 is reported as < 10 nM.
With `C[C@@H]1COCCN1c1nc2n(c(=O)c1F)[C@@H](C(F)(F)F)CCN2CC(=O)c1ccccn1` [Example 135, (R)-3-Fluoro-2-((R)-3-methylmorpholin-4-yl)-9-(2-oxo-2-pyridin-2-ylethyl)-6-trifluoromethyl-6,7,8,9-tetrahydro-pyrimido[1,2-a]-pyrimidin-4-one] the IC50 was < 10 nM.
In the case of `C[C@@H]1COCCN1c1cc(=O)n2c(n1)N(c1ccc(C3CCC3)nc1)[C@H](C(F)(F)F)CC2` [Example 88, (S)-9-(6-Cyclobutyl-pyridin-3-yl)-2-((R)-3-methylmorpholin-4-yl)-8-trifluoromethyl-6,7,8,9-tetrahydro-pyrimido[1,2-a]-pyrimidin-4-one], the IC50 is reported as < 10 nM.
In the case of `Cc1noc(CN2c3nc(N4CCOC[C@H]4C)c(F)c(=O)n3C[C@@]2(C)C(F)(F)F)n1` [Example 207, (S)-6-Fluoro-2-methyl-7-((R)-3-methyl-morpholin-4-yl)-1-(3-methyl-[1,2,4]oxadiazol-5-yl-methyl)-2-trifluoromethyl-2,3-dihydro-1H-imidazo[1,2-a]-pyrimidin-5-one], the IC50 is reported as < 10 nM.
With `CC(C)C(F)CN1c2nc(N3CCOC[C@H]3C)cc(=O)n2CC[C@H]1C(F)(F)F` (single isomer, unassigned) [Example 323] the IC50 was < 10 nM.
For `C[C@@H]1COCCN1c1cc(=O)n2c(n1)N(c1ccc(C3CC3)nc1)[C@H](C(F)(F)F)CC2` [Example 302, (S)-9-(6-Cyclopropyl-pyridin-3-yl)-2-((R)-3-methylmorpholin-4-yl)-8-trifluoromethyl-6,7,8,9-tetrahydro-pyrimido[1,2-a]-pyrimidin-4-one], the IC50 was < 10 nM.
`C[C@@H]1COCCN1c1cc(=O)n2c(n1)N(CC1CCCCO1)[C@H](C(F)(F)F)CC2` (single isomer, unassigned) [Example 138] was tested, and the IC50 was < 10 nM.
In the case of `COc1cc(N2CC[C@H](C(F)(F)F)n3c2nc(N2CCOC[C@H]2C)cc3=O)ccn1` [Example 109, (R)-9-(2-Methoxy-pyridin-4-yl)-2-((R)-3-methylmorpholin-4-yl)-6-trifluoromethyl-6,7,8,9-tetrahydro-pyrimido[1,2-a]-pyrimidin-4-one], the IC50 is reported as < 10 nM.
With `C[C@@H]1COCCN1c1nc2n(c(=O)c1F)[C@@H](C(F)(F)F)CCN2Cc1nc(C2CC2)no1` [Example 147, (R)-9-(3-Cyclopropyl-[1,2,4]oxadiazol-5-yl-methyl)-3-fluoro-2-((R)-3-methyl-morpholin-4-yl)-6-trifluoromethyl-6,7,8,9-tetrahydro-pyrimido[1,2-a]-pyrimidin-4-one] the IC50 was < 10 nM.
In the case of `CO/N=C(/CN1c2nc(N3CCOC[C@H]3C)cc(=O)n2CC[C@H]1C(F)(F)F)C1CC1` (single isomer, unassigned) [Example 306], the IC50 is reported as < 10 nM.
In the case of `C[C@@H]1COCCN1c1nc2n(c(=O)c1F)CC[C@@H](C(F)(F)F)N2CCO` [Example 204, (S)-3-Fluoro-9-(2-hydroxyethyl)-2-((R)-3-methylmorpholin-4-yl)-8-trifluoromethyl-6,7,8,9-tetrahydro-pyrimido[1,2-a]-pyrimidin-4-one], the IC50 is reported as < 10 nM.
`C[C@@H]1COCCN1c1cc(=O)n2c(n1)N(c1ccc(C3CC3)nc1)CC[C@@H]2C(F)(F)F` [Example 107, (R)-9-(6-Cyclopropyl-pyridin-3-yl)-2-((R)-3-methylmorpholin-4-yl)-6-trifluoromethyl-6,7,8,9-tetrahydro-pyrimido[1,2-a]-pyrimidin-4-one] was tested, and the IC50 was < 10 nM.
In the case of `CC1COCC(C)N1c1cc(=O)n2c(n1)N(CC(=O)c1ccccc1)[C@H](C(F)(F)F)CC2` (stereo in doubt) [Example 153, (S)-2-((3S,5S)-3,5-Dimethylmorpholin-4-yl)-9-(2-oxo-2-phenyl-ethyl)-8-trifluoromethyl-6,7,8,9-tetrahydro-pyrimido[1,2-a]-pyrimidin-4-one], the IC50 is reported as < 10 nM.
